From article PMC4471590 (Chemistry (Weinheim an Der Bergstrasse, Germany), 2015)

Target: LytA239–252 (Streptococcus pneumoniae, UniProt P06653)
Assay: near-UV CD titration, ellipticity at […] nm
Format: binding

SMILES: C[N+](C)(C)CCO [choline]
- Kd: 80 ± 10 mM
